Some results are limits rather than exact numbers.

Usually IC50 stands for the concentration at which inhibition is half-maximal.

This assay has as its target T1, Recombinant human farnesyl transferase (FTase) (Homo sapiens, UniProt P49356).
T1 construct: purchased Crelux (Martinsried, Germany)
Description: FTase fluorescence assay (farnesylation of dansyl-GCVLS peptide). The format is biochemical. Particulars: recombinant human FTase 2.5 nM, Dansyl-GCVLS 85 nM, FPP 30 nM, 30° C., 50 minutes. The source says: T24/83 cell line was purchased from the European Collection of Authenticated Cell Cultures (Salisbury, UK). Recombinant human farnesyl transferase (FTase) and geranylgeranyl transferase type-1 (GGTase) were obtained from Crelux (Martinsried, Germany). Dansyl labelled GCVLS peptide was purchased from Bachem (Torrance, CA), and Dansyl labelled GCVLL peptide was purchased from Bio Synthesis (Lewisville, TX). Farnesyl Pyrophosphate (FPP) and Geranylgeranyl pyrophosphate (GGPP) were purchased from Cayman (Ann Arbor, MI).
Specific biochemical activity of the compounds disclosed herein as FTase inhibitors was determined by measuring the ability of the compounds to block the farnesylation by recombinant FTase of fluorescent (i.e., dansyl-labeled) test substrates derived from the CAAX box of farnesylated proteins, such as the peptide GCVLS.
The IC50 value of the compounds disclosed herein as inhibitors of Ftase and/or GGTase, was determined by measuring the concentration (provided in nM) necessary to achieve inhibition of enzyme activity by 50% (IC50). […] Compounds having a low IC50 value against FTase, for example an IC50 (FTase)<100 nM, such as an IC50 (FTase)<10 nM, are preferred. Compounds having a low IC50 value against FTase and a high IC50 value against GGTase, for example an IC50 (FTase)<100 nM, such as an IC50 (FTase)<10 nM, and an IC50 (GGTase)>100 nM, are potent and selective inhibitors of FTase, and are particularly preferred.
The inhibition activities of the compounds disclosed herein against Ftase and GGTase were measured in the respective fluorescence assays as follows:
For the FTase assay, recombinant human FTase (2.5 nM), Dansyl labelled GCVLS peptide (85 nM), FPP (30 nM) and inhibitor were mixed in assay buffer (50 mM Tris, pH 7.5, 10 mM magnesium chloride, 10 μM zinc chloride, 0.08% CHAPS, 5 mM dithiothreitol) and incubated in a total volume of 20 μL at 30° C. for 50 minutes.
For both the FTase assay and GGTase assay, fluorescence intensity was detected (excitation at 340 nm and emission at 486 nm) using EnVision (PerkinElmer; Waltham, MA), IC50 determinations were performed using a sigmoidal dose-response model with Xlfit software (IDBS, Inc.; Boston, MA), and tipifarnib was used as a positive control. All the assay plates for each assay passed the QC criteria (S/B, Z factor).
As to `COc1cc2c3cc(ccc3n1)C(O)(c1cncn1C)c1ccc(Cl)c(c1)CCOc1cccc-2c1` (centres unmarked) [Compound 64, 4^4-chloro-2^2-methoxy-3-(1-methyl-1H-imidazol-5-yl)-7-oxa-2(4,6)-quinolina-1,4(1,3)-dibenzenacycloheptaphan-3-ol], the IC50 was greater than 100 nM. In the case of `Cn1cncc1[C@]1(N)c2ccc(C#N)c(c2)COc2cccc(c2)-c2cc(N3CCOCC3)nc3ccc1cc23` (racemic) [(R)-66, (R)-3-amino-3-(1-methyl-1H-imidazol-5-yl)-2^2-morpholino-6-oxa-2(4,6)-quinolina-1,4(1,3)-dibenzenacyclohexaphane-4^4-carbonitrile], the half-inhibitory concentration (IC50) was no more than 10 nM. Turning to `[2H]C([2H])([2H])n1c(=O)cc2c3cc(ccc31)[C@](O)(c1cncn1C)c1ccc(C#N)c(c1)COc1cccc-2c1` (racemic) [(R)-55, (R)-3-hydroxy-21-(methyl-d3)-3-(1-methyl-1H-imidazol-5-yl)-2^2-oxo-2^1,2^2-dihydro-6-oxa-2(4,6)-quinolina-1,4(1,3)-dibenzenacyclohexaphane-4^4-carbonitrile], the IC50 is greater than 100 nM. In the case of `Cn1cncc1[C@@]1(N)c2ccc(C#N)c(c2)COc2cccc(c2)-c2cc(N3CCOCC3)nc3ccc1cc23` [(S)-66, (S)-3-amino-3-(1-methyl-1H-imidazol-5-yl)-2^2-morpholino-6-oxa-2(4,6)-quinolina-1,4(1,3)-dibenzenacyclohexaphane-4^4-carbonitrile] it was no more than 10 nM.

For `CNC1(c2nncn2C)c2ccc(Cl)c(c2)COc2cccc(c2)-c2cc(=O)n(C)c3ccc1cc23` (centres unmarked) [Compound 50, 4^4-chloro-2^1-methyl-3-(4-methyl-4H-1,2,4-triazol-3-yl)-3-(methylamino)-2^1,2^2-dihydro-6-oxa-2(4,6)-quinolina-1,4(1,3)-dibenzenacyclohexaphan-2^2-one], the IC50 was no more than 10 nM. Consider `[2H]C([2H])([2H])n1c(=O)cc2c3cc(ccc31)[C@](O)(c1cncn1C)c1ccc(Cl)c(c1)OCCc1cccc-2c1` (racemic) [(R)-28, (R)-4^4-chloro-3-hydroxy-2^1-(methyl-d3)-3-(1-methyl-1H-imidazol-5-yl)-2^1,2^2-dihydro-5-oxa-2(4,6)-quinolina-1,4(1,3)-dibenzenacycloheptaphan-2^2-one], for which the IC50 is greater than 100 nM. In the case of `[2H]C([2H])([2H])n1c(=O)cc2c3cc(ccc31)[C@H](n1cnc(C)c1)c1ccc(Cl)c(c1)COc1cccc-2c1` [(S)-77, (S)-4^4-chloro-2^1-(methyl-d3)-3-(4-methyl-1H-imidazol-1-yl)-2^1,2^2-dihydro-6-oxa-2(4,6)-quinolina-1,4(1,3)-dibenzenacyclohexaphan-2^2-one], the half-maximal inhibitory concentration (IC50) fell in the range of 10 to 100 nM. As for `[2H]C([2H])([2H])n1c(=O)cc2c3cc(ccc31)[C@](N)(c1cncn1C)c1ccc(C#N)c(c1)COc1cccc-2c1` (racemic) [(R)-56, (R)-3-amino-2^1-(methyl-d3)-3-(1-methyl-1H-imidazol-5-yl)-2^2-oxo-2^1,2^2-dihydro-6-oxa-2(4,6)-quinolina-1,4(1,3)-dibenzenacyclohexaphane-4^4-carbonitrile], the half-inhibitory concentration (IC50) is greater than 100 nM.

As for `[2H]C([2H])([2H])n1c(=O)cc2c3cc(ccc31)[C@@H](n1cnc(C)n1)c1ccc(Cl)c(c1)COc1cccc-2c1` [(R)-080, (R)-4^4-chloro-2^1-(methyl-d3)-3-(3-methyl-1H-1,2,4-triazol-1-yl)-2^1,2^2-dihydro-6-oxa-2(4,6)-quinolina-1,4(1,3)-dibenzenacyclohexaphan-2^2-one], the 50% inhibitory concentration (IC50) fell in the range of 10 to 100 nM.

In the case of `COc1cc2c3cc(ccc3n1)C(O)(c1cncn1C)c1ccc(C#N)c(c1)COc1cccc-2c1` (centres unmarked) [Compound 53, 3-hydroxy-2^2-methoxy-3-(1-methyl-1H-imidazol-5-yl)-6-oxa-2(4,6)-quinolina-1,4(1,3)-dibenzenacyclohexaphane-4^4-carbonitrile], the IC50 was no more than 10 nM.

For `Cc1cn([C@H]2c3ccc(C#N)c(c3)COc3cccc(c3)-c3cc(C#N)nc4ccc2cc34)cn1` [(R)-90, (R)-3-(4-methyl-1H-imidazol-1-yl)-6-oxa-2(4,6)-quinolina-1,4(1,3)-dibenzenacyclohexaphane-2^2,4^4-dicarbonitrile], the IC50 was 10 to 100 nM.

In the case of `COc1cc2c3cc(cnc3c1)C(O)(c1cncn1C)c1ccc(C#N)c(c1)COc1cccc-2c1` (centres unmarked) [Compound 88, 3-hydroxy-2^7-methoxy-3-(1-methyl-1H-imidazol-5-yl)-6-oxa-2(5,3)-quinolina-1,4(1,3)-dibenzenacyclohexaphane-4^4-carbonitrile], the IC50 is no more than 10 nM.

In the case of `COc1cc2c3cc(ccc3n1)C(O)(c1cncn1C)c1ccc(C#N)c(c1)OCc1cccc-2c1` (centres unmarked) [Compound 16, 3-hydroxy-2^2-methoxy-3-(1-methyl-1H-imidazol-5-yl)-5-oxa-2(4,6)-quinolina-1,4(1,3)-dibenzenacyclohexaphane-4^4-carbonitrile], the IC50 fell in the range of 10 to 100 nM. The same measure for `Cn1cncc1[C@]1(O)c2ccc(C#N)c(c2)OCc2cccc(c2)-c2cc(=O)n(C)c3ccc1cc23` (racemic) [(R)-18, (R)-3-hydroxy-2^1-methyl-3-(1-methyl-1H-imidazol-5-yl)-2^2-oxo-2^1,2^2-dihydro-5-oxa-2(4,6)-quinolina-1,4(1,3)-dibenzenacyclohexaphane-4^4-carbonitrile]: greater than 100 nM. In the case of `Cn1cncc1[C@]1(N)c2ccc(Cl)c(c2)OCc2cccc(c2)-c2cc(=O)n(C)c3ccc1cc23` (racemic) [(R)-15, (R)-3-amino-4^4-chloro-2^1-methyl-3-(1-methyl-1H-imidazol-5-yl)-2^1,2^2-dihydro-5-oxa-2(4,6)-quinolina-1,4(1,3)-dibenzenacyclohexaphan-2^2-one] it was greater than 100 nM. For `[2H]C([2H])([2H])n1c(=O)cc2c3cc(ccc31)[C@](N)(c1cncn1C)c1ccc(Cl)c(c1)COc1cccc-2c1` (racemic) [(R)-47, (R)-3-amino-4^4-chloro-2^1-(methyl-d3)-3-(1-methyl-1H-imidazol-5-yl)-2^1,2^2-dihydro-6-oxa-2(4,6)-quinolina-1,4(1,3)-dibenzenacyclohexaphan-2^2-one], the half-maximal inhibitory concentration (IC50) was greater than 100 nM.

For the compound `Cn1cnnc1C1(O)c2ccc(Cl)c(c2)OCCc2cccc(c2)-c2cc(=O)[nH]c3ccc1cc23` (centres unmarked) [Compound 31, 4^4-chloro-3-hydroxy-3-(4-methyl-4H-1,2,4-triazol-3-yl)-2^1,2^2-dihydro-5-oxa-2(4,6)-quinolina-1,4(1,3)-dibenzenacycloheptaphan-2^2-one], the IC50 is 10 to 100 nM. Regarding `Cn1cncc1C1(N)c2ccc(Br)c(c2)COc2cccc(c2)-c2cc(OC3COC3)nc3ccc1cc23` (centres unmarked) [Compound 75, 4^4-bromo-3-(1-methyl-1H-imidazol-5-yl)-2^2-(oxetan-3-yloxy)-6-oxa-2(4,6)-quinolina-1,4(1,3)-dibenzenacyclohexaphan-3-amine], the IC50 was greater than 100 nM. The same measure for `Cn1cncc1[C@]1(N)c2ccc(C#N)c(c2)COc2cccc(c2)-c2nccc3ccc1cc23` [(R)-86, (R)-3-amino-3-(1-methyl-1H-imidazol-5-yl)-6-oxa-2(1,7)-isoquinolina-1,4(1,3)-dibenzenacyclohexaphane-4^4-carbonitrile]: greater than 100 nM; for `Cn1cnnc1[C@]1(N)c2ccc(Cl)c(c2)OCCc2cccc(c2)-c2cc(=O)n(C3CC3)c3ccc1cc23` (racemic) [(R)-35, (R)-3-amino-4^4-chloro-2^1-cyclopropyl-3-(4-methyl-4H-1,2,4-triazol-3-yl)-2^1,2^2-dihydro-5-oxa-2(4,6)-quinolina-1,4(1,3)-dibenzenacycloheptaphan-2^2-one]: greater than 100 nM. In the case of `[2H]C([2H])([2H])n1c(=O)cc2c3cc(ccc31)[C@](N)(c1cncn1C)c1ccc(C#N)c(c1)CCc1cccc-2c1` (racemic) [(S)-8, (S)-3-amino-2^1-(methyl-d3)-3-(1-methyl-1H-imidazol-5-yl)-22-oxo-2^1,2^2-dihydro-2(4,6)-quinolina-1,4(1,3)-dibenzenacyclohexaphane-4^4-carbonitrile] it was greater than 100 nM; in that of `Cn1cncc1[C@]1(N)c2ccc(C#N)c(c2)COc2cccc(c2)-c2cc(C#N)nc3ccc1cc23` (racemic) [(R)-58, (R)-3-amino-3-(1-methyl-1H-imidazol-5-yl)-6-oxa-2(4,6)-quinolina-1,4(1,3)-dibenzenacyclohexaphane-2^2,4^4-dicarbonitrile], 10 to 100 nM; in that of `[2H]C([2H])([2H])OC1(c2nncn2C)c2ccc(Cl)c(c2)OCCc2cccc(c2)-c2cc(=O)n(C([2H])([2H])[2H])c3ccc1cc23` (centres unmarked) [Compound 33, 4^4-chloro-3-(methoxy-d3)-2^1-(methyl-d3)-3-(4-methyl-4H-1,2,4-triazol-3-yl)-2^1,2^2-dihydro-5-oxa-2(4,6)-quinolina-1,4(1,3)-dibenzenacycloheptaphan-2^2-one], 10 to 100 nM.

Values taken from patent US12018011B2, “Macrocyclic compounds and compositions, and methods of preparing and using the same” (Kura Oncology, Inc., priority 2021, dated 2024).
